Data from patent US20110021530A1, “PYRIDAZINE DERIVATIVES AND THEIR USE AS THERAPEUTIC AGENTS IN THE TREATMENT OF SKIN DISORDERS” (XENON PHARMACEUTICALS INC., priority 2008, published 2011).

Legend:
HEPG2 = HEPG2 IC50; format: cell-based; conditions: Homo sapiens
[1] = biological target: T1, stearoyl-CoA desaturase (SCD) (Mus musculus, UniProt P13516); test: HTS microsomal assay of stearoyl-CoA desaturase inhibition using mouse liver microsomes; format: biochemical; conditions: % SCD enzyme activity remaining at 10 μM test compound
T1 construct: Reactions are started by adding 2 mg of microsomal protein; from tissue; host or cells: liver microsomes of male ICR mice on a high-carbohydrate, low fat diet
T1 sequence (P13516 1-355): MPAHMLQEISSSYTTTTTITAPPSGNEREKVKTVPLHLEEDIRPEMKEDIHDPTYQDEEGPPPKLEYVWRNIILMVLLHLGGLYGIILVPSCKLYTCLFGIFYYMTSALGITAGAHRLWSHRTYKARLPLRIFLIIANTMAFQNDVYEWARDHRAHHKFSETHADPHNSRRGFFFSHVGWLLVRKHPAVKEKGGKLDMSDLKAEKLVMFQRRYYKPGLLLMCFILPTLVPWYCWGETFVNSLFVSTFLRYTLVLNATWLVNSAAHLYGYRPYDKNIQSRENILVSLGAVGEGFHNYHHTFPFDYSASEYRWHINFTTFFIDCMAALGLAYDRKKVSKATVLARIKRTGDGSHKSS
Protocol: The absence of mitochondrial contamination is enzymatically assessed.
The compounds are analyzed with an HTS microsomal assay.

SCD = biological target: T2, SCD (Mus musculus, UniProt P13516); test: Mouse SCD IC50 determination for compounds active in the HTS assay; format: biochemical
T2 sequence (P13516 1-355): T1 sequence (P13516 1-355)
Protocol: The compounds are analyzed with an HTS microsomal assay. The activities are defined in terms of % SCD enzyme activity remaining at the selected concentration (e.g., 10 μM) of the test compounds.

**Q.** Which IC50 (HEPG2) does the source give for `O=C(NCCC1CC1)c1ccc(N2CCN(Cc3ccc(F)cc3C(F)(F)F)CC2)nn1` [6-[4-(4-FLUORO-2-TRIFLUOROMETHYLBENZYL)-PIPERAZIN-1-YL]PYRIDAZINE-3-CARBOXYLIC ACID (2-CYCLOPROPYLETHYL)AMIDE] here?
**A.** 10 nM

**Q.** What about the “Mouse microsome SCD activity % remaining @ 10 μM” value [1] of the same compound?
**A.** 12%

**Q.** And the IC50 (SCD)?
**A.** 20 nM

**Q.** For `O=C(NCCC1CC1)c1ccc(N2CCN(Cc3ccc(F)cc3Cl)CC2)nn1` [6-[4-(2-CHLORO-4-FLUOROBENZYL)PIPERAZIN-1-YL]PYRIDAZINE-3-CARBOXYLIC ACID (2-CYCLOPROPYLETHYL)AMIDE], which IC50 (HEPG2) is on record?
**A.** 70 nM

**Q.** What about the “Mouse microsome SCD activity % remaining @ 10 μM” value [1] of the same compound?
**A.** 11%

**Q.** And the IC50 (SCD)?
**A.** 130 nM

**Q.** With `CC(C)CCNC(=O)c1ccc(N2CCN(C(=O)C(C)CC(F)(F)F)CC2)nn1` (centres unmarked) [6-[4-(4,4,4-TRIFLUORO-2-METHYLBUTYRYL)PIPERAZIN-1-YL]PYRIDAZINE-3-CARBOXYLIC ACID (3-METHYLBUTYL)AMIDE] as the compound, how does the “Mouse microsome SCD activity % remaining @ 10 μM” value [1] read?
**A.** 19%

**Q.** How did the “Mouse microsome SCD activity % remaining @ 10 μM” value [1] turn out when `CC(C)CCNC(=O)c1ccc(N2CCN(C(=O)N3CCN(C)CC3)CC2)nn1` [6-[4-(4-METHYLPIPERAZINE-1-CARBONYL)PIPERAZIN-1-YL]PYRIDAZINE-3-CARBOXYLIC ACID (3-METHYLBUTYL)AMIDE] was run?
**A.** 29%

**Q.** For `O=C(NCCC1CC1)c1ccc(N2CCN(C(=O)c3cc(Cl)ccc3C(F)(F)F)CC2)nn1` [6-[4-(5-CHLORO-2-TRIFLUOROMETHYLBENZOYL)PIPERAZIN-1-YL]PYRIDAZINE-3-CARBOXYLIC ACID (2-CYCLOPROPYLETHYL)AMIDE], which “Mouse microsome SCD activity % remaining @ 10 μM” value [1] is on record?
**A.** 12%

**Q.** What about the IC50 (SCD) of the same compound?
**A.** 90 nM

**Q.** `CC(C)CCNC(=O)c1ccc(N2CCN(C(=O)OC(C)(C)C)CC2)nn1` [4-[6-(3-METHYLBUTYLCARBAMOYL)PYRIDAZIN-3-YL]PIPERAZINE-1-CARBOXYLIC ACID T-BUTYL ESTER] was tested. Which IC50 (HEPG2) did it give?
**A.** 1450 nM

**Q.** What about the “Mouse microsome SCD activity % remaining @ 10 μM” value [1] of the same compound?
**A.** 11%

**Q.** How did the “Mouse microsome SCD activity % remaining @ 10 μM” value [1] turn out when `CC(C)CCNC(=O)c1ccc(N2CCN(C(=O)C3(C(F)(F)F)CC3)CC2)nn1` [6-[4-(1-TRIFLUOROMETHYLCYCLOPROPANECARBONYL)PIPERAZIN-1-YL]-PYRIDAZINE-3-CARBOXYLIC ACID (3-METHYLBUTYL)AMIDE] was run?
**A.** 26%

**Q.** For `CC(NC(=O)Nc1ccc(N2CCN(C(=O)c3ccccc3C(F)(F)F)CC2)nn1)c1ccc(F)cc1` (centres unmarked) [1-[1-(4-Fluorophenyl)ethyl]-3-{6-[4-(2-trifluoromethylbenzoyl)piperazin-1-yl]pyridazin-3-yl}urea], which “Mouse microsome SCD activity % remaining @ 10 μM” value [1] is on record?
**A.** 45%

**Q.** Which “Mouse microsome SCD activity % remaining @ 10 μM” value [1] does the source give for `CC(C)CCNC(=O)c1ccc(N2CCN(C(=O)CCC(F)(F)F)CC2)nn1` [6-[4-(4,4,4-TRIFLUOROBUTYRYL)PIPERAZIN-1-YL]PYRIDAZINE-3-CARBOXYLIC ACID (3-METHYLBUTYL)AMIDE] here?
**A.** 42%

**Q.** With `CC(C)CCNC(=O)c1ccc(N2CCN(C(=O)c3nnn(Cc4ccccc4)c3C(F)(F)F)CC2)nn1` [6-[4-(1-BENZYL-5-TRIFLUOROMETHYL-1H-[1,2,3]TRIAZOLE-4-CARBONYL)-PIPERAZIN-1-YL]PYRIDAZINE-3-CARBOXYLIC ACID (3-METHYLBUTYL)AMIDE] as the compound, how does the “Mouse microsome SCD activity % remaining @ 10 μM” value [1] read?
**A.** 61%

**Q.** How did the “Mouse microsome SCD activity % remaining @ 10 μM” value [1] turn out when `CC(C)CCNC(=O)c1ccc(N2CCN(C(=O)c3c(C(F)(F)F)nnn3Cc3ccccc3)CC2)nn1` [6-[4-(3-BENZYL-5-TRIFLUOROMETHYL-3H-[1,2,3]TRIAZOLE-4-CARBONYL)PIPERAZIN-1-YL]PYRIDAZINE-3-CARBOXYLIC ACID (3-METHYLBUTYL)AMIDE] was run?
**A.** 61%

**Q.** How did the “Mouse microsome SCD activity % remaining @ 10 μM” value [1] turn out when `O=C(NCCC1CC1)c1ccc(N2CCN(C(=O)Cc3ccccc3C(F)(F)F)CC2)nn1` [6-{4-[2-(2-TRIFLUOROMETHYLPHENYL)ACETYL]PIPERAZIN-1-YL}PYRIDAZINE-3-CARBOXYLIC ACID (2-CYCLOPROPYLETHYL)AMIDE] was run?
**A.** 10%

**Q.** And the IC50 (SCD)?
**A.** 590 nM

**Q.** With `O=C(NCCC1CC1)c1ccc(N2CCN(C(=O)C3CCCCC3)CC2)nn1` [6-(4-CYCLOHEXANECARBONYLPIPERAZIN-1-YL)PYRIDAZINE-3-CARBOXYLIC ACID (2-CYCLOPROPYLETHYL)AMIDE] as the compound, how does the “Mouse microsome SCD activity % remaining @ 10 μM” value [1] read?
**A.** 22%

**Q.** For `CC(c1ccccc1C(F)(F)F)N1CCN(c2ccc(C(=O)NCCC3CC3)nn2)CC1.Cl` (centres unmarked) [6-{4-[1-(2-TRIFLUOROMETHYLPHENYL)ETHYL]PIPERAZIN-1-YL}-PYRIDAZINE-3-CARBOXYLIC ACID (2-CYCLOPROPYLETHYL)AMIDE HYDROCHLORIDE], which “Mouse microsome SCD activity % remaining @ 10 μM” value [1] is on record?
**A.** 24%

**Q.** Which “Mouse microsome SCD activity % remaining @ 10 μM” value [1] does the source give for `COC(=O)C(CC(C)C)NC(=O)c1ccc(N2CCN(C(=O)c3ccccc3C(F)(F)F)CC2)nn1` (centres unmarked) [4-METHYL-2-({6-[4-(2-TRIFLUOROMETHYLBENZOYL)PIPERAZIN-1-YL]-PYRIDAZINE-3-CARBONYL}AMINO)PENTANOIC ACID METHYL ESTER] here?
**A.** 69%

**Q.** For `CCC(CC)C(=O)N1CCN(c2ccc(C(=O)NCCC3CC3)nn2)CC1` [6-[4-(2-ETHYLBUTYRYL)PIPERAZIN-1-YL]PYRIDAZINE-3-CARBOXYLIC ACID (2-CYCLOPROPYLETHYL)AMIDE], which “Mouse microsome SCD activity % remaining @ 10 μM” value [1] is on record?
**A.** 36%

**Q.** Which “Mouse microsome SCD activity % remaining @ 10 μM” value [1] does the source give for `CC(C)(C)OC(=O)N1CCN(c2ccc(C(=O)NCCC3CC3)nn2)CC1` [4-[6-(2-CYCLOPROPYLETHYLCARBAMOYL)PYRIDAZIN-3-YL]PIPERAZINE-1-CARBOXYLIC ACID T-BUTYL ESTER] here?
**A.** 37%

**Q.** How did the “Mouse microsome SCD activity % remaining @ 10 μM” value [1] turn out when `O=C(NCCC1CC1)c1ccc(N2CCN(C(=O)C3(O)CC3)CC2)nn1` [6-[4-(1-HYDROXYCYCLOPROPANECARBONYL)PIPERAZIN-1-YL]PYRIDAZINE-3-CARBOXYLIC ACID (2-CYCLOPROPYLETHYL)AMIDE] was run?
**A.** 73%

**Q.** Which “Mouse microsome SCD activity % remaining @ 10 μM” value [1] does the source give for `O=C(NCCc1ccccc1)c1ccc(N2CCN(C(=O)c3ccccc3C(F)(F)F)CC2)nn1` [6-[4-(2-Trifluoromethylbenzoyl)piperazin-1-yl]pyridazine-3-carboxylic acid phenethylamide] here?
**A.** 0%

**Q.** With `O=C(Nc1ccc(F)cc1)Nc1ccc(N2CCN(C(=O)c3ccccc3C(F)(F)F)CC2)nn1` [1-(4-FLUOROPHENYL)-3-{6-[4-(2-TRIFLUOROMETHYLBENZOYL)PIPERAZIN-1-YL]-PYRIDAZIN-3-YL}UREA] as the compound, how does the “Mouse microsome SCD activity % remaining @ 10 μM” value [1] read?
**A.** 82%

**Q.** How did the “Mouse microsome SCD activity % remaining @ 10 μM” value [1] turn out when `O=C(Nc1ccc(N2CCN(C(=O)c3ccccc3C(F)(F)F)CC2)nn1)Nc1ccccc1F` [1-(2-FLUOROPHENYL)-3-{6-[4-(2-TRIFLUOROMETHYLBENZOYL)PIPERAZIN-1-YL]-PYRIDAZIN-3-YL}UREA] was run?
**A.** 73%

**Q.** What does the source list for `CC(C)CCNC(=O)c1ccc(N2CCN(C(=O)CC(C)C(F)(F)F)CC2)nn1` (centres unmarked) [6-[4-(4,4,4-TRIFLUORO-3-METHYLBUTYRYL)PIPERAZIN-1-YL]PYRIDAZINE-3-CARBOXYLIC ACID (3-METHYLBUTYL)AMIDE]?
**A.** IC50 (HEPG2): 2530 nM; Mouse microsome SCD activity % remaining @ 10 μM [1]: 11%

**Q.** How did the “Mouse microsome SCD activity % remaining @ 10 μM” value [1] turn out when `O=C(NCCC1CC1)c1ccc(N2CCN(C(=O)c3ccccn3)CC2)nn1` [6-[4-(PYRIDINE-2-CARBONYL)PIPERAZIN-1-YL]PYRIDAZINE-3-CARBOXYLIC ACID (2-CYCLOPROPYLETHYL)AMIDE] was run?
**A.** 94%

**Q.** With `CC(=O)Oc1ccccc1C(=O)N1CCN(c2ccc(C(=O)NCCC3CC3)nn2)CC1` [ACETIC ACID 2-{4-[6-(2-CYCLOPROPYLETHYLCARBAMOYL)PYRIDAZIN-3-YL]-PIPERAZINE-1-CARBONYL}PHENYL ESTER] as the compound, how does the “Mouse microsome SCD activity % remaining @ 10 μM” value [1] read?
**A.** 46%
